Bounds are passed on as bounds.

The test has as its target GST-Bc1-2 (Homo sapiens, UniProt P10415). In words: Time Resolved-Fluorescence Resonance Energy Transfer (TR-FRET) Bcl-2 binding assay with F-Bak peptide probe. Conditions: GST-Bcl-2 1 nM, F-Bak probe 100 nM, Tb-anti-GST 1 nM; '<' = below limit of detection; read-out: TR-FRET Bcl-2 Binding Ki.

GST-Bc1-2, sequence (P10415 whole entry): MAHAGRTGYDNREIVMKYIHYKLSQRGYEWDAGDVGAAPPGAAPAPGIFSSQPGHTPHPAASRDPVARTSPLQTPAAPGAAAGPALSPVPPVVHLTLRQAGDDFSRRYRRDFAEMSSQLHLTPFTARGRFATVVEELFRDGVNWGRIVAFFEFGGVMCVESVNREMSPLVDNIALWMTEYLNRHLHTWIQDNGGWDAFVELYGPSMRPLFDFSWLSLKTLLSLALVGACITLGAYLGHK

As usually defined, the Ki is a dissociation constant, usually derived from enzyme kinetics or from competition with a known ligand. As for `CC1(C)CCC(CN2CCN(c3ccc(C(=O)NS(=O)(=O)c4ccc(NCCCNC5CC5)c([N+](=O)[O-])c4)c(Oc4cnc5[nH]ccc5c4)c3)CC2)=C(c2ccc(Cl)cc2)C1` [Example 291, 4-(4-{[2-(4-chlorophenyl)-4,4-dimethylcyclohex-1-en-1-yl]methyl}piperazin-1-yl)-N-[(4-{[3-(cyclopropylamino)propyl]amino}-3-nitrophenyl)sulfonyl]-2-(1H-pyrrolo[2,3-b]pyridin-5-yloxy)benzamide], the Ki was less than 0.01 nM.
Turning to `COCCOc1ncc(S(=O)(=O)NC(=O)c2ccc(N3CCN(CC4=C(c5ccc(Cl)cc5)CC(C)(C)CC4)CC3)cc2Oc2cnc3[nH]ccc3c2)cc1Cl` [Example 292, N-{[5-chloro-6-(2-methoxyethoxy)pyridin-3-yl]sulfonyl}-4-(4-{[2-(4-chlorophenyl)-4,4-dimethylcyclohex-1-en-1-yl]methyl}piperazin-1-yl)-2-(1H-pyrrolo[2,3-b]pyridin-5-yloxy)benzamide], the Ki worked out at 0.19 nM.
In the case of `CC1(C)CCC(CN2CCN(c3ccc(C(=O)NS(=O)(=O)c4cnc(OCC5CCOCC5)c(F)c4)c(Oc4cnc5[nH]ccc5c4)c3)CC2)=C(c2ccc(Cl)cc2)C1` [Example 293, 4-(4-{[2-(4-chlorophenyl)-4,4-dimethylcyclohex-1-en-1-yl]methyl}piperazin-1-yl)-N-{[5-fluoro-6-(tetrahydro-2H-pyran-4-ylmethoxy)pyridin-3-yl]sulfonyl}-2-(1H-pyrrolo[2,3-b]pyridin-5-yloxy)benzamide] it was 0.093 nM.
The same measure for `COCC(=O)N1CCC(COc2ccc(S(=O)(=O)NC(=O)c3ccc(N4CCN(CC5=C(c6ccc(Cl)cc6)CC(C)(C)CC5)CC4)cc3Oc3cnc4[nH]ccc4c3)cc2Cl)CC1` [Example 294, N-[(3-chloro-4-{[1-(methoxyacetyl)piperidin-4-yl]methoxy}phenyl)sulfonyl]-4-(4-{[2-(4-chlorophenyl)-4,4-dimethylcyclohex-1-en-1-yl]methyl}piperazin-1-yl)-2-(1H-pyrrolo[2,3-b]pyridin-5-yloxy)benzamide]: 0.046 nM.
In the case of `CN(C)CC(=O)N1CCC(COc2ccc(S(=O)(=O)NC(=O)c3ccc(N4CCN(CC5=C(c6ccc(Cl)cc6)CC(C)(C)CC5)CC4)cc3Oc3cnc4[nH]ccc4c3)cc2Cl)CC1` [Example 295, N-[(3-chloro-4-{[1-(N,N-dimethylglycyl)piperidin-4-yl]methoxy}phenyl)sulfonyl]-4-(4-{[2-(4-chlorophenyl)-4,4-dimethylcyclohex-1-en-1-yl]methyl}piperazin-1-yl)-2-(1H-pyrrolo[2,3-b]pyridin-5-yloxy)benzamide] it was less than 0.01 nM; in that of `CC1(C)CCC(CC2CCN(c3ccc(C(=O)NS(=O)(=O)c4ccc(NCC5CCOCC5)c([N+](=O)[O-])c4)c(Oc4cnc5[nH]ccc5c4)c3)CC2)C(c2ccc(Cl)cc2)C1` (centres unmarked) [Example 296, 4-(4-{[2-(4-chlorophenyl)-4,4-dimethylcyclohexyl]methyl}piperidin-1-yl)-N-({3-nitro-4-[(tetrahydro-2H-pyran-4-ylmethyl)amino]phenyl}sulfonyl)-2-(1H-pyrrolo[2,3-b]pyridin-5-yloxy)benzamide], 0.512 nM; in that of `CC1(C)CCC(CN2CCN(c3ccc(C(=O)NS(=O)(=O)c4cnc(OCC5CCOCC5)c(C(F)(F)F)c4)c(Oc4cnc5[nH]ccc5c4)c3)CC2)=C(c2ccc(Cl)cc2)C1` [Example 297, 4-(4-{[2-(4-chlorophenyl)-4,4-dimethylcyclohex-1-en-1-yl]methyl}piperazin-1-yl)-2-(1H-pyrrolo[2,3-b]pyridin-5-yloxy)-N-{[6-(tetrahydro-2H-pyran-4-ylmethoxy)-5-(trifluoromethyl)pyridin-3-yl]sulfonyl}benzamide], 0.174 nM.
`CC1(C)CCC(CN2CCN(c3ccc(C(=O)NS(=O)(=O)c4cnc(OC[C@H]5CC[C@H](O)CC5)c(Cl)c4)c(Oc4cnc5[nH]ccc5c4)c3)CC2)=C(c2ccc(Cl)cc2)C1` [Example 298, N-({5-chloro-6-[(trans-4-hydroxycyclohexyl)methoxy]pyridin-3-yl}sulfonyl)-4-(4-{[2-(4-chlorophenyl)-4,4-dimethylcyclohex-1-en-1-yl]methyl}piperazin-1-yl)-2-(1H-pyrrolo[2,3-b]pyridin-5-yloxy)benzamide]: the Ki was less than 0.01 nM.
In the case of `CC1(C)CCC(CN2CCN(c3ccc(C(=O)NS(=O)(=O)c4ccc(OCC5(F)CCOCC5)c(C#N)c4)c(Oc4cnc5[nH]ccc5c4)c3)CC2)=C(c2ccc(Cl)cc2)C1` [Example 299, 4-(4-{[2-(4-chlorophenyl)-4,4-dimethylcyclohex-1-en-1-yl]methyl}piperazin-1-yl)-N-({3-cyano-4-[(4-fluorotetrahydro-2H-pyran-4-yl)methoxy]phenyl}sulfonyl)-2-(1H-pyrrolo[2,3-b]pyridin-5-yloxy)benzamide] it was 0.039 nM; in that of `CC1(C)CCC(CC2CCN(c3ccc(C(=O)NS(=O)(=O)c4cnc(OCC5(O)CCC(F)(F)CC5)c(Cl)c4)c(Oc4cnc5[nH]ccc5c4)c3)CC2)=C(c2ccc(Cl)cc2)C1` [Example 302, N-({5-chloro-6-[(4,4-difluoro-1-hydroxycyclohexyl)methoxy]pyridin-3-yl}sulfonyl)-4-(4-{[2-(4-chlorophenyl)-4,4-dimethylcyclohex-1-en-1-yl]methyl}piperidin-1-yl)-2-(1H-pyrrolo[2,3-b]pyridin-5-yloxy)benzamide], 0.332 nM.
In the case of `CC1(C)CCC(CN2CCN(c3ccc(C(=O)NS(=O)(=O)c4ccc(OC[C@H]5CC[C@H](N6CCOCC6)CC5)c(Cl)c4)c(Oc4cnc5[nH]ccc5c4)c3)CC2)=C(c2ccc(Cl)cc2)C1` [Example 303, N-[(3-chloro-4-{[trans-4-(morpholin-4-yl)cyclohexyl]methoxy}phenyl)sulfonyl]-4-(4-{[2-(4-chlorophenyl)-4,4-dimethylcyclohex-1-en-1-yl]methyl}piperazin-1-yl)-2-(1H-pyrrolo[2,3-b]pyridin-5-yloxy)benzamide] it was 0.044 nM.
The same measure for `CC1(C)CCC(CN2CCN(c3ccc(C(=O)NS(=O)(=O)c4ccc(OC[C@H]5CC[C@H](O)CC5)c(Cl)c4)c(Oc4cnc5[nH]ccc5c4)c3)CC2)=C(c2ccc(Cl)cc2)C1` [Example 305, N-({3-chloro-4-[(trans-4-hydroxycyclohexyl)methoxy]phenyl}sulfonyl)-4-(4-{[2-(4-chlorophenyl)-4,4-dimethylcyclohex-1-en-1-yl]methyl}piperazin-1-yl)-2-(1H-pyrrolo[2,3-b]pyridin-5-yloxy)benzamide]: 0.033 nM; for `CC1(C)CCC(CN2CCN(c3ccc(C(=O)NS(=O)(=O)c4ccc(NCC5CCOCC5)c(Cl)c4)c(Oc4cnc5[nH]ccc5c4)c3)CC2)=C(c2ccc(Cl)cc2)C1` [Example 306, 4-(4-{[2-(4-chlorophenyl)-4,4-dimethylcyclohex-1-en-1-yl]methyl}piperazin-1-yl)-N-({3-chloro-4-[(tetrahydro-2H-pyran-4-ylmethyl)amino]phenyl}sulfonyl)-2-(1H-pyrrolo[2,3-b]pyridin-5-yloxy)benzamide]: 2.07 nM.
Take `CC1(C)CCC(CN2CCN(c3ccc(C(=O)NS(=O)(=O)c4ccc(OCC5(F)CCOCC5)c(C(F)(F)F)c4)c(Oc4cnc5[nH]ccc5c4)c3)CC2)=C(c2ccc(Cl)cc2)C1` [Example 307, 4-(4-{[2-(4-chlorophenyl)-4,4-dimethylcyclohex-1-en-1-yl]methyl}piperazin-1-yl)-N-({4-[(4-fluorotetrahydro-2H-pyran-4-yl)methoxy]-3-(trifluoromethyl)phenyl}sulfonyl)-2-(1H-pyrrolo[2,3-b]pyridin-5-yloxy)benzamide]: the Ki was determined as 0.13 nM.

Source of the values: patent US8580794B2 (AbbVie Inc., priority 2009, dated 2013).
